Experimental data: ChEMBL document CHEMBL3885881, “DrugMatrix”

Species: Rattus norvegicus
Assay: DrugMatrix - Regimen: Daily Repeat
Assay type: toxicity, organism-based, Sprague-Dawley
Design: regimen Daily Repeat, gender Male, age 6-8 weeks
Settings: in vivo, po, route oral GAVAGE, vehicle .5 % CMC; for BASOPHIL / EOSINOPHIL / ERYTHROCYTE COUNT / HEMATOCRIT / HEMOGLOBIN / LEUKOCYTE COUNT / LYMPHOCYTE / MEAN CORPUSCULAR HEMOGLOBIN / MEAN CORPUSCULAR HEMOGLOBIN CONCENTRATION / MEAN CORPUSCULAR VOLUME / MONOCYTE / NEUTROPHIL / PLATELET COUNT: tissue Blood; for ALANINE AMINOTRANSFERASE / ALBUMIN / ALKALINE PHOSPHATASE / ASPARTATE AMINOTRANSFERASE / BLOOD UREA NITROGEN / CARBON DIOXIDE / CHLORIDE / CHOLESTEROL / CREATINE PHOSPHOKINASE / CREATININE / GLUCOSE / LACTATE DEHYDROGENASE / LIPASE / PHOSPHORUS / POTASSIUM / SODIUM / TOTAL BILIRUBIN / TOTAL PROTEIN / URIC ACID: tissue Plasma
[1] = 0 mg/kg, 72 h, dose level Control, time 3 day
[2] = 0 mg/kg, 120 h, dose level Control, time 5 day
[3] = 0 mg/kg, […], dose level Control, time 14 day
[4] = 200 mg/kg, 72 h, dose level High, time 3 day
[5] = 200 mg/kg, 120 h, dose level High, time 5 day

## Nc1cccc(Cl)c1 [3-CHLOROANILINE]
[1]
  BASOPHIL: 0.62%
  EOSINOPHIL: 0.52%
  ERYTHROCYTE COUNT: 6.33 x10E6/uL
  HEMATOCRIT: 41.88%
  HEMOGLOBIN: 13.52 G/DL
  LEUKOCYTE COUNT: 11.39 x10E3/uL
  LYMPHOCYTE: 86.18%
  MEAN CORPUSCULAR HEMOGLOBIN: 21.35 pg
  MEAN CORPUSCULAR HEMOGLOBIN CONCENTRATION: 32.23 G/DL
  MEAN CORPUSCULAR VOLUME: 66.25 fL
  MONOCYTE: 1.93%
  NEUTROPHIL: 9.1%
  PLATELET COUNT: 1204.5 x10E3/uL
  ALANINE AMINOTRANSFERASE: 43 u/L
  ALBUMIN: 4.08 G/DL
  ALKALINE PHOSPHATASE: 426.33 u/L
  ASPARTATE AMINOTRANSFERASE: 72.5 u/L
  BLOOD UREA NITROGEN: 16.67 mg/dL
  CARBON DIOXIDE: 28.33 mmol/L
  CHLORIDE: 103.5 MEQ/L
  CHOLESTEROL: 78.83 mg/dL
  CREATINE PHOSPHOKINASE: 325.67 u/L
  CREATININE: 0.48 mg/dL
  GLUCOSE: 171.67 mg/dL
  LACTATE DEHYDROGENASE: 107.33 u/L
  LIPASE: 11.83 u/L
  PHOSPHORUS: 12.55 mg/dL
  POTASSIUM: 6.57 MEQ/L
  SODIUM: 145.67 MEQ/L
  TOTAL BILIRUBIN: 0.42 mg/dL
  TOTAL PROTEIN: 6.1 G/DL
  URIC ACID: 1.57 mg/dL
[2]
  BASOPHIL: 0.48%
  EOSINOPHIL: 0.67%
  ERYTHROCYTE COUNT: 6.69 x10E6/uL
  HEMATOCRIT: 44.17%
  HEMOGLOBIN: 13.78 G/DL
  LEUKOCYTE COUNT: 7.86 x10E3/uL
  LYMPHOCYTE: 85.9%
  MEAN CORPUSCULAR HEMOGLOBIN: 20.6 pg
  MEAN CORPUSCULAR HEMOGLOBIN CONCENTRATION: 31.25 G/DL
  MEAN CORPUSCULAR VOLUME: 65.9 fL
  MONOCYTE: 3.27%
  NEUTROPHIL: 8.67%
  PLATELET COUNT: 1182.33 x10E3/uL
  ALANINE AMINOTRANSFERASE: 37.5 u/L
  ALBUMIN: 4 G/DL
  ALKALINE PHOSPHATASE: 348.17 u/L
  ASPARTATE AMINOTRANSFERASE: 71.67 u/L
  BLOOD UREA NITROGEN: 13 mg/dL
  CARBON DIOXIDE: 27 mmol/L
  CHLORIDE: 104.67 MEQ/L
  CHOLESTEROL: 73.33 mg/dL
  CREATINE PHOSPHOKINASE: 211.33 u/L
  CREATININE: 0.23 mg/dL
  GLUCOSE: 155 mg/dL
  LACTATE DEHYDROGENASE: 133.83 u/L
  LIPASE: 11.17 u/L
  PHOSPHORUS: 14.53 mg/dL
  POTASSIUM: 6.65 MEQ/L
  SODIUM: 148.17 MEQ/L
  TOTAL BILIRUBIN: 0.28 mg/dL
  TOTAL PROTEIN: 6.22 G/DL
  URIC ACID: 1.57 mg/dL
[3]
  BASOPHIL: 0.97%
  EOSINOPHIL: 0.8%
  ERYTHROCYTE COUNT: 7.02 x10E6/uL
  HEMATOCRIT: 44.43%
  HEMOGLOBIN: 14.58 G/DL
  LEUKOCYTE COUNT: 16.49 x10E3/uL
  LYMPHOCYTE: 79.03%
  MEAN CORPUSCULAR HEMOGLOBIN: 20.85 pg
  MEAN CORPUSCULAR HEMOGLOBIN CONCENTRATION: 32.78 G/DL
  MEAN CORPUSCULAR VOLUME: 63.57 fL
  MONOCYTE: 1.9%
  NEUTROPHIL: 15.18%
  PLATELET COUNT: 1184.33 x10E3/uL
  ALANINE AMINOTRANSFERASE: 43 u/L
  ALBUMIN: 4.25 G/DL
  ALKALINE PHOSPHATASE: 409.67 u/L
  ASPARTATE AMINOTRANSFERASE: 84.17 u/L
  BLOOD UREA NITROGEN: 16 mg/dL
  CARBON DIOXIDE: 35.17 mmol/L
  CHLORIDE: 99.83 MEQ/L
  CHOLESTEROL: 68.67 mg/dL
  CREATINE PHOSPHOKINASE: 384.17 u/L
  CREATININE: 0.43 mg/dL
  GLUCOSE: 160 mg/dL
  LACTATE DEHYDROGENASE: 115.33 u/L
  LIPASE: 17.33 u/L
  PHOSPHORUS: 10.68 mg/dL
  POTASSIUM: 6.48 MEQ/L
  SODIUM: 148.17 MEQ/L
  TOTAL BILIRUBIN: 0.45 mg/dL
  TOTAL PROTEIN: 6.57 G/DL
  URIC ACID: 1.78 mg/dL
[4]
  BASOPHIL: 0.8%
  EOSINOPHIL: 0.35%
  ERYTHROCYTE COUNT: 6.14 x10E6/uL
  HEMATOCRIT: 40.2%
  HEMOGLOBIN: 12.45 G/DL
  LEUKOCYTE COUNT: 16.22 x10E3/uL
  LYMPHOCYTE: 78.8%
  MEAN CORPUSCULAR HEMOGLOBIN: 20.3 pg
  MEAN CORPUSCULAR HEMOGLOBIN CONCENTRATION: 31 G/DL
  MEAN CORPUSCULAR VOLUME: 65.45 fL
  MONOCYTE: 2.65%
  NEUTROPHIL: 16.45%
  PLATELET COUNT: 1382 x10E3/uL
  ALANINE AMINOTRANSFERASE: 38.5 u/L
  ALBUMIN: 4.1 G/DL
  ALKALINE PHOSPHATASE: 564 u/L
  ASPARTATE AMINOTRANSFERASE: 78.5 u/L
  BLOOD UREA NITROGEN: 14 mg/dL
  CARBON DIOXIDE: 30.5 mmol/L
  CHLORIDE: 106 MEQ/L
  CHOLESTEROL: 63.5 mg/dL
  CREATINE PHOSPHOKINASE: 161 u/L
  CREATININE: 0.4 mg/dL
  GLUCOSE: 168.5 mg/dL
  LACTATE DEHYDROGENASE: 65.5 u/L
  LIPASE: 14.5 u/L
  PHOSPHORUS: 13.95 mg/dL
  POTASSIUM: 6.9 MEQ/L
  SODIUM: 148 MEQ/L
  TOTAL BILIRUBIN: 0.5 mg/dL
  TOTAL PROTEIN: 6.1 G/DL
  URIC ACID: 1.65 mg/dL
[5]
  BASOPHIL: 0.4%
  EOSINOPHIL: 0.7%
  ERYTHROCYTE COUNT: 5.95 x10E6/uL
  HEMATOCRIT: 43%
  HEMOGLOBIN: 13 G/DL
  LEUKOCYTE COUNT: 15.09 x10E3/uL
  LYMPHOCYTE: 67.85%
  MEAN CORPUSCULAR HEMOGLOBIN: 21.85 pg
  MEAN CORPUSCULAR HEMOGLOBIN CONCENTRATION: 30.25 G/DL
  MEAN CORPUSCULAR VOLUME: 72.25 fL
  MONOCYTE: 4.1%
  NEUTROPHIL: 26.4%
  PLATELET COUNT: 1312 x10E3/uL
  ALANINE AMINOTRANSFERASE: 35 u/L
  ALBUMIN: 4.1 G/DL
  ALKALINE PHOSPHATASE: 356 u/L
  ASPARTATE AMINOTRANSFERASE: 72.5 u/L
  BLOOD UREA NITROGEN: 12 mg/dL
  CARBON DIOXIDE: 29.5 mmol/L
  CHLORIDE: 103.5 MEQ/L
  CHOLESTEROL: 69.5 mg/dL
  CREATINE PHOSPHOKINASE: 182 u/L
  CREATININE: 0.25 mg/dL
  GLUCOSE: 150.5 mg/dL
  LACTATE DEHYDROGENASE: 149 u/L
  LIPASE: 9 u/L
  PHOSPHORUS: 13.05 mg/dL
  POTASSIUM: 6.45 MEQ/L
  SODIUM: 148.5 MEQ/L
  TOTAL BILIRUBIN: 0.55 mg/dL
  TOTAL PROTEIN: 6.3 G/DL
  URIC ACID: 1.75 mg/dL
